# Reference: ChEMBL document CHEMBL1201862, “PubChem BioAssay data set” (2004)
# Activity calls are given as the source filed them.
# Assays:
# [1] = target: T1, RNA-binding protein pos-1 (Caenorhabditis elegans, UniProt G5EF15); experiment: disruptors of C. elegans POS-1 RNA interaction – biochemical, fluorescence polarization, dose response (AID 1964);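 also: purified POS-1 fused to maltose binding protein made in E. coli; potency of compounds blocking POS-1 binding to fluorescent RNA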
# T1 sequence (G5EF15 whole entry): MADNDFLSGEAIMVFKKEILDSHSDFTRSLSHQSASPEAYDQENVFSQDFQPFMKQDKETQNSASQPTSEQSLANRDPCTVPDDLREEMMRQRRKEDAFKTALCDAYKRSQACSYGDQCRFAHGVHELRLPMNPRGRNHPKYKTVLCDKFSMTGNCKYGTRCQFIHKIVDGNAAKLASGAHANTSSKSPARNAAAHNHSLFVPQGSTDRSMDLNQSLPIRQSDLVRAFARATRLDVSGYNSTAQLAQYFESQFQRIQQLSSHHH
# [2] = target: T2, Zinc finger protein mex-5 (Caenorhabditis elegans, UniProt Q9XUB2); experiment: potency of MEX-5 RNA-binding blockers – biochemical, C. elegans, fluorescence polarization, dose response (AID 1960)
# T2 sequence (Q9XUB2 whole entry): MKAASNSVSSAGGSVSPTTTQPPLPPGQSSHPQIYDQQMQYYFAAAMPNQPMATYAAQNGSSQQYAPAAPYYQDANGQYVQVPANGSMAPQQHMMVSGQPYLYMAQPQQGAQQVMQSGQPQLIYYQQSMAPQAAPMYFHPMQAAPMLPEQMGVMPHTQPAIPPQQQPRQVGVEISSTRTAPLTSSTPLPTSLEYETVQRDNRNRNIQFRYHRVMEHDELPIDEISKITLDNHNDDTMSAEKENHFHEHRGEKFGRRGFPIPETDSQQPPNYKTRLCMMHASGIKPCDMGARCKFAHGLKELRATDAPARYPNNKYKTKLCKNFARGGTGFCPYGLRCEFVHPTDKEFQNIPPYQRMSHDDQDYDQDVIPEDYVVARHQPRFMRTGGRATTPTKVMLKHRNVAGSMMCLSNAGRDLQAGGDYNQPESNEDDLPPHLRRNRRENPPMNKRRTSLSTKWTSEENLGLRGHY
# Cytochrome P450 2C19 = Cytochrome P450 2C19 (Homo sapiens, UniProt P33261); experiment: Cytochrome panel assay with activity outcomes. Panel member name: p450-cyp2c19 Compounds with AC50 equal or less than 10 uM are considered active; format: functional; settings: read-out: AC50
# Cytochrome P450 3A4 = Cytochrome P450 3A4 (Homo sapiens, UniProt P08684);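 also: CYP3A4 tested as one member of a cytochrome P450 panel screen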
# Cytochrome P450 2C9 = Cytochrome P450 2C9 (Homo sapiens, UniProt P11712)
# [3] = Luminescence Cell-Based Dose Response HTS to Identify Activators of Luciferase Translation or Activity in H4 […] Cells. [Related pubchem assays: 1829 (Project Summary), 1814 (Primary HTS)]; format: functional
# H4 = experiment: Luminescence Cell-Based Dose Response HTS to Identify Activators of 5'UTR Stem-Loop Driven Prion Protein mRNA Translation in H4 Neuroglioblastoma Cells. [Related pubchem assays: 1829 (Project Summary), 1814 (Primary HTS)]; format: functional; settings: Homo sapiens
# [4] = luciferase reporter signal suppression in cells – H4 neuroglioma cells, luminescence, dose response (AID 1990); format: functional, cell-based
# [5] = Luminescence Cell-Based Dose Response HTS to Identify Inhibitors of 5'UTR Stem-Loop Driven Prion Protein mRNA Translation in H4 Neuroglioblastoma Cells. [Related pubchem assays: 1827 (Project Summary), 1813 (Primary HTS)]; format: functional
# [6] = alpha-synuclein stem-loop luciferase translation blockers – H4 neuroglioma cells, luminescence, confirmation (AID 1988); format: functional, cell-based
# [7] = Luminescence Cell-Based Dose Retest to Confirm Inhibitors of Cancer Stem Cells. [Related pubchem assays (depositor defined):AID2717, AID2721]; format: functional; settings: Homo sapiens
# Nonstructural protein 1 = Nonstructural protein 1 (Influenza A virus, UniProt Q194T2); format: functional, Influenza A virus (A/California/07/2009(H1N1))
# INS1 = experiment: INS-1E survival protection against cytokine death – cell-based, luminescence, retest, dose response (AID 449756); format: functional; settings: Rattus norvegicus;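 also: cell death triggered by IL-1 beta plus TNF-alpha plus IFN-gamma mixture; protective hits raise ATP signal compared with cytokine alone wells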
# [8] = reduction of Shn3 3'UTR-driven luciferase in osteoblasts – cell-based, Clone20 osteoblasts, firefly luciferase, cherry-picked, dose response (AID 624132); format: functional;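 also: firefly luciferase luminescence from reporter carrying the Shn3 3'UTR in osteoblasts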
# [9] = loss of viability in HepG2 cells – cell-based, CellTiter-Glo, cherry-picked, cytotoxicity control for Shn3 inhibitor project, dose response (AID 624134); format: functional
# [10] = non-specific 3'UTR reporter inhibition in Clone20-Shn3RL – cell-based, Renilla luciferase, cherry-picked, counter-screen for Shn3 inhibitor project, dose response (AID 624133); format: functional
# [11] = target: T3, Rac GTPase-activating protein 1 (Homo sapiens, UniProt Q9H0H5); experiment: blockers of MgcRacGAP-driven Rac1 GTP hydrolysis – biochemical, ADP Hunter fluorescence, primary and confirmatory, confirmation (AID 624330); format: functional
# T3 sequence (Q9H0H5 whole entry): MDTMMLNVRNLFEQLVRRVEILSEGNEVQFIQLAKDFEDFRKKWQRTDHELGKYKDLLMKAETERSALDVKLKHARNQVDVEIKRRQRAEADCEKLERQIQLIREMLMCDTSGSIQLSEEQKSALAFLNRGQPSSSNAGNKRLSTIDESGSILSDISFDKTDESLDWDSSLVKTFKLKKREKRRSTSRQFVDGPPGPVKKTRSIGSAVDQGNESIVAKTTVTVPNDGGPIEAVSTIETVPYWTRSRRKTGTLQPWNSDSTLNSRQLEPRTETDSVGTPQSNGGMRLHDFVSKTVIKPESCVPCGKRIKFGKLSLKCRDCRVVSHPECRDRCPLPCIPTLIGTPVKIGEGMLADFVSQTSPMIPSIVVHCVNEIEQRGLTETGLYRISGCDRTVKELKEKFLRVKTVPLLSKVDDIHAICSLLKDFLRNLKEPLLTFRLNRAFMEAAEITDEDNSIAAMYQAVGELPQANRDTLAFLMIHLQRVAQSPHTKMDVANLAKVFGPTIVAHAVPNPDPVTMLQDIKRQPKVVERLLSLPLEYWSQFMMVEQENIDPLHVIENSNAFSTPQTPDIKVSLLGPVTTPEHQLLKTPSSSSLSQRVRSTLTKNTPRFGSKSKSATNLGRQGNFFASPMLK
# [12] = viability of PTEN-deleted HCT116 cells – cell-based, HCT116 PTEN knockout, dose response (AID 1047); format: functional;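 also: HCT116 colon tumor cells with PTEN knocked out; cells exposed to compound for 60 hours before readout; potency for loss of cell viability measured by luminescence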
# [13] = viability of HCT116 lacking mutant beta-catenin – cell-based, human colon tumor, dose response (AID 1045); format: functional;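 also: HCT116 colon tumor cells with beta catenin knocked out; cells exposed to compound for 60 hours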
# [14] = target: T4, Replicative DNA helicase DnaB (Mycobacterium tuberculosis, UniProt P9WMR3); experiment: DnaB intein splicing inhibitors, dose response, biochemical, cell-free fluorescence (AID 449749); format: functional
# T4 sequence (P9WMR3 whole entry): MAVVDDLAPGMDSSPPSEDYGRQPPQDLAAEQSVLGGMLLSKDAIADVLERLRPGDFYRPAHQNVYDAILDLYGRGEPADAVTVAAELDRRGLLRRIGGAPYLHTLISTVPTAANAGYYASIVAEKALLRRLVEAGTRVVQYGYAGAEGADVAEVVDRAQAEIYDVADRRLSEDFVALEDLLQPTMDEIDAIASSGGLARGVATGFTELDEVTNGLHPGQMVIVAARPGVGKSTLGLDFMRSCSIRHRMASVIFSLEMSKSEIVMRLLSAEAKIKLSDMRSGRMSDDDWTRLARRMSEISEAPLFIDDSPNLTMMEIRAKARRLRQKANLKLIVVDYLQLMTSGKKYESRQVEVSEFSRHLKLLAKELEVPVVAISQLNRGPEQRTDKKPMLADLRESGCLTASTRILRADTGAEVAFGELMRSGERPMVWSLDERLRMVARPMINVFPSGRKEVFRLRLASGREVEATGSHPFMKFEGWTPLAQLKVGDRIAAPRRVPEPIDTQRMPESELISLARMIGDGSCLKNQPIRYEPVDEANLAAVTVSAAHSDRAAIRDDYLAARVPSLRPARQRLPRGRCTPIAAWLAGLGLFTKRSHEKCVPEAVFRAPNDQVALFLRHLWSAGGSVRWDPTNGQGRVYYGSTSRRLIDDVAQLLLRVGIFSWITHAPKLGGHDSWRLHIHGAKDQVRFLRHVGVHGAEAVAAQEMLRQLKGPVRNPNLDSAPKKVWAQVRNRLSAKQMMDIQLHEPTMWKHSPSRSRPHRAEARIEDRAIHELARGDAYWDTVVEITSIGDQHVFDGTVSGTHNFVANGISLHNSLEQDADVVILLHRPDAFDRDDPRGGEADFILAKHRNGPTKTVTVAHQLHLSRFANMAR
# Protein RecA = target: T5, Protein RecA (Mycobacterium tuberculosis, UniProt P9WHJ3); experiment: Fluorescence Cell-Free Homogeneous Dose Retest to Identify Inhibitors of RecA-Intein Splicing Activity. [Related pubchem assays (depositor defined):AID2097, AID2223, AID489010, AID492950]; format: functional
# T5 sequence (P9WHJ3 whole entry): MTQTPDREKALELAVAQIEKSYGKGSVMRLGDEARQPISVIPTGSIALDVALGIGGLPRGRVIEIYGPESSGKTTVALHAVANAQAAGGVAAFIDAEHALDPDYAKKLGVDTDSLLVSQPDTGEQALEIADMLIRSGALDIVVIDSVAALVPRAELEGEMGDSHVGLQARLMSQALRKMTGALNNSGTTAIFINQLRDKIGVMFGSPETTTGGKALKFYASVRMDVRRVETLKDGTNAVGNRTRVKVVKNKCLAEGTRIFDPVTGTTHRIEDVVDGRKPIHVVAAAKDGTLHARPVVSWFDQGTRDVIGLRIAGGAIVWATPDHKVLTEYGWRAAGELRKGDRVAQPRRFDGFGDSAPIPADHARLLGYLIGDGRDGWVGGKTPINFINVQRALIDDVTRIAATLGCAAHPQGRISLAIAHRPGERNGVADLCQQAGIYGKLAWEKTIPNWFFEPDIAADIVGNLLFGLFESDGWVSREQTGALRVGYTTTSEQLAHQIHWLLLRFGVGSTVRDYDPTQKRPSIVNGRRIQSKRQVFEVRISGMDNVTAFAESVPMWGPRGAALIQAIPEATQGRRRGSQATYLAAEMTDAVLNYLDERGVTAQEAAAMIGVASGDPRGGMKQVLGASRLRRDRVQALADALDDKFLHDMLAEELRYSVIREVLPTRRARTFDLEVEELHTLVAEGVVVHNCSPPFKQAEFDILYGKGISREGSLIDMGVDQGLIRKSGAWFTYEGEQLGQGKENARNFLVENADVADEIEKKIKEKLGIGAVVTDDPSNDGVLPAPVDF
# [15] = microbe, parasite or virus in culture; format: functional; settings: Mycobacterium tuberculosis
# Chain of Cytochrome P450 2C19 (P33261 whole entry): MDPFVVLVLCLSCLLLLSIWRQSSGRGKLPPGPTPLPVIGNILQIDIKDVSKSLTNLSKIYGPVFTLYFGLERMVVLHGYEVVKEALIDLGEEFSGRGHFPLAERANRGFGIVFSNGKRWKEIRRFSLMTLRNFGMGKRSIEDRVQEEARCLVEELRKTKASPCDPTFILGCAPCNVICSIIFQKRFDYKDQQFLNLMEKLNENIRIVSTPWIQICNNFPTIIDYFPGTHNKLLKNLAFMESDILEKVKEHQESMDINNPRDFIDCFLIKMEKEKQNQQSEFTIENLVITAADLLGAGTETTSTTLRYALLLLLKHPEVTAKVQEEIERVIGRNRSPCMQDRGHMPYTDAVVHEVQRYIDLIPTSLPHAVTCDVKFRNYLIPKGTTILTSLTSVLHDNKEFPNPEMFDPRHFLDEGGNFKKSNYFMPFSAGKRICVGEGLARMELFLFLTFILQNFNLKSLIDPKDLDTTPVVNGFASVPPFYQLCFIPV
# Chain of Cytochrome P450 2C9 (P11712 whole entry): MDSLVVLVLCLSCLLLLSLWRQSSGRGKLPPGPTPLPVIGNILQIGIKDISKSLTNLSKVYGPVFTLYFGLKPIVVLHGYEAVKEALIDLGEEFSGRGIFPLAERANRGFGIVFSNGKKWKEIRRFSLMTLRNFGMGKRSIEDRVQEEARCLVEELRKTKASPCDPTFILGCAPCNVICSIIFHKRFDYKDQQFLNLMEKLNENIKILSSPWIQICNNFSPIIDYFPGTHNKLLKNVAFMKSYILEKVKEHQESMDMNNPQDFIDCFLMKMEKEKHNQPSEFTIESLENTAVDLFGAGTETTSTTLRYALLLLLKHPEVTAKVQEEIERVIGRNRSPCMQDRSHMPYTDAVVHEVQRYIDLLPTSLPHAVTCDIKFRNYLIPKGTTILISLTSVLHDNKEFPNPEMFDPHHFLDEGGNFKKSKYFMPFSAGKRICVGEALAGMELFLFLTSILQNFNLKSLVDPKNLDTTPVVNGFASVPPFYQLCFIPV
# Chain of Nonstructural protein 1 (Q194T2 whole entry): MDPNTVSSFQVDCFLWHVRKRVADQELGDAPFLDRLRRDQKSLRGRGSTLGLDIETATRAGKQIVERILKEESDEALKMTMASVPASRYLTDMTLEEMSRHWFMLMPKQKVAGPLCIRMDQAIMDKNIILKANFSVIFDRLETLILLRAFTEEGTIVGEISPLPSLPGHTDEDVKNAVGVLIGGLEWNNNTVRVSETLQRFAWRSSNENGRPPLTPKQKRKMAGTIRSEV
# Chain of Cytochrome P450 3A4 (P08684 whole entry): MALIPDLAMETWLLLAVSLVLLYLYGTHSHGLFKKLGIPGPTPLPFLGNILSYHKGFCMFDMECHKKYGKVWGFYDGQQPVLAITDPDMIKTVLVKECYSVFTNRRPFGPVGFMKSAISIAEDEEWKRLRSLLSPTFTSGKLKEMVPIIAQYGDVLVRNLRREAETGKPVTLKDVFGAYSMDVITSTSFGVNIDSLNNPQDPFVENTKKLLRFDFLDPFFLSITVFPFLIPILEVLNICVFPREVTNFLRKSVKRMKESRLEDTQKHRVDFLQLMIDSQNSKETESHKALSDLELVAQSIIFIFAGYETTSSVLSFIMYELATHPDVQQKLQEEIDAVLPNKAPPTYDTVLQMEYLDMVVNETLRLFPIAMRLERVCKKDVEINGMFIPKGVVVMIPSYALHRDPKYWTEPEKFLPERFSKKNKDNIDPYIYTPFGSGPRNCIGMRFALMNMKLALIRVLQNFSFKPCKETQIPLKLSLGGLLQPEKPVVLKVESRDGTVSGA
compound,measurement,setting,value
COc1ccc(C2C(C#N)=C(N)OC3=C2C(=O)CC(C)(C)C3)cc1 (centres undefined),EC50,[1],69.7 µM (active)
same,EC50,[2],> 300 µM (not active)
Cn1c2ccccc2c2cc(C(=O)N3CCOCC3)sc21,AC50,Cytochrome P450 2C19,39.8 µM (inconclusive)
same,AC50,Cytochrome P450 3A4,28.2 µM (inconclusive)
same,AC50,Cytochrome P450 2C9,inconclusive
CCOc1ccccc1N/C=C(\C#N)c1nc2ccccc2n1C,EC50,[3],> 120 µM (not active)
same,EC50,H4,> 120 µM (not active)
COc1ccc(/C=C2\SC(=S)N(CCCC(=O)NC3CCCC3)C2=O)cc1OC,EC50,[1],57.5 µM (active)
same,EC50,[2],55.7 µM (inconclusive)
CC(=O)c1ccc(Oc2ncnc3sccc23)cc1,EC50,[3],9.03 µM (active)
same,EC50,H4,33.2 µM (active)
COc1ccc(-c2nc(C#N)c(NCc3ccco3)o2)cc1,EC50,[3],31.9 µM (active)
same,EC50,H4,7.92 µM (active)
COc1ccccc1C(CCNCc1ccc(N(C)C)cc1)c1ccc(OC(C)C)cc1 (centres undefined),EC50,[4],> 60 µM (not active)
same,EC50,[5],> 120 µM (not active)
same,EC50,[6],7.66 µM (active)
same,AC50,[7],5.31 µM (active)
same,IC50,Nonstructural protein 1,8.29 µM (active)
same,AC50,INS1,7.11 µM (active)
same,AC50,[8],6.48 µM (active)
same,AC50,[9],12.5 µM (active)
same,AC50,[10],12 µM (active)
COCCCNCCCCOc1c(Cl)cc(C)cc1Br.O=C(O)C(=O)O,IC50,[11],64.1 µM (active)
same,AC50,Cytochrome P450 2C9,inconclusive
CCOC(=O)N1CCN(C2=Nc3cccc4cccc2c34)CC1,EC50,[1],> 300 µM (not active)
same,EC50,[2],60.2 µM (active)
CCCCCc1cc(=O)oc2c(C(CCN3CCCC3)c3ccc(N(C)C)cc3)c(OC)cc(OC)c12 (centres undefined),IC50,Nonstructural protein 1,6.41 µM (active)
O=C(Nc1nnc(SCc2c(Cl)cccc2Cl)s1)C1CCCO1 (centres undefined),AC50,Cytochrome P450 2C19,14.1 µM (inconclusive)
same,AC50,Cytochrome P450 2C9,inconclusive
Cc1ccc(C(=O)NC(=S)Nc2ccc3c(c2)OCCO3)c(C)c1,AC50,Cytochrome P450 2C19,17.8 µM (inconclusive)
same,AC50,Cytochrome P450 2C9,inconclusive
COc1ccc(OC)c(N2C(=O)NC(=O)/C(=C\c3c[nH]c4ccccc34)C2=O)c1,EC50,[1],> 300 µM (not active)
same,EC50,[2],> 300 µM (not active)
N=c1c2c(-c3ccccc3)c(-c3ccccc3)n(Cc3ccco3)c2ncn1Cc1ccccc1,EC50,[12],1.68 µM (active)
same,EC50,[13],1.35 µM (active)
same,AC50,[14],3.08 µM (active)
same,EC50,Protein RecA,6.7 µM (active)
same,AC50,INS1,6.08 µM (active)
O=S(=O)(c1ccccc1)N1CCC2(CC1)CN(c1ccncc1)C2,AC50,Cytochrome P450 3A4,39.8 µM (inconclusive)
same,AC50,Cytochrome P450 2C9,inconclusive
COc1ccc(C2Oc3ccccc3C3=C2C(c2cccs2)n2ncnc2N3)cc1 (centres undefined),CC50,[15],16.8 µM (active)
same,EC50,[12],8.88 µM (active)
same,EC50,[13],7.97 µM (active)
Cc1ccc(C)n1-c1ccc(C(=O)O)cc1,EC50,[1],13.9 µM (active)
same,EC50,[2],20.5 µM (inconclusive)
Cc1ccc(-n2nc(C)c(/C=N/NC(=O)c3ccc(O)cc3O)c2O)cc1,EC50,[1],76.9 µM (active)
same,EC50,[2],22 µM (active)
same,IC50,Nonstructural protein 1,4.44 µM (active)
CC1=C/C(=N\Nc2ccccc2[N+](=O)[O-])CC(C)(C)C1,IC50,Nonstructural protein 1,14.9 µM (active)
COc1ccc(Cc2nnc(N/N=C/c3ccccc3O)nc2O)cc1OC,AC50,[7],3.66 µM (active)
same,IC50,Nonstructural protein 1,1.42 µM (active)
same,AC50,INS1,0.834 µM (active)
COc1cc(/C=N/NC(=O)CN2CC(c3ccccc3)CC2=O)ccc1OC(=O)N(C)C (centres undefined),AC50,Cytochrome P450 2C19,22.4 µM (inconclusive)
same,AC50,Cytochrome P450 2C9,inconclusive
